B1: RmlD (dTDP-4-dehydrorhamnose reductase) from Salmonella enterica serovar Typhimurium, wild type (enzyme, Salmonella enterica (LT2), UniProt P26392 1-299, looked up)
chain: MNILLFGKTGQVGWELQRSLAPVGNLIALDVHSKEFCGDFSNPKGVAETVRKLRPDVIVNAAAHTAVDKAESEPELAQLLNATSVEAIAKAANETGAWVVHYSTDYVFPGTGDIPWQETDATSPLNVYGKTKLAGEKALQDNCPKHLIFRTSWVYAGKGNNFAKTMLRLAKERQTLSVINDQYGAPTGAELLADCTAHAIRVALNKPEVAGLYHLVAGGTTTWHDYAALVFDEARKAGITLALTELNAVPTSAYPTPASRPGNSRLNTEKFQRNFDLILPQWELGVKRMLTEMFTTTTI
notes: RmlD, Salmonella enterica serovar Typhimurium LT2, full-length rmlD (GI 16420628); also called SeRmlD; wild-type SeRmlD; source: E. coli BL21(DE3), expressed and purified as described for GacA; not shown: His6, N-terminal, cleaved; GST, N-terminal, cleaved

Assays:
[1] = target: T1, GacA (dTDP-4-dehydrorhamnose reductase, RmlD) (Streptococcus pyogenes, UniProt Q9A0G6); test: SPR (Biacore T200), equilibrium fit, […]°C; assay type: binding
T1 construct: full-length gacA (AAZ51220.1; M5005_Spy_0602), chemically biotinylated
T1 sequence (Q9A0G6 entry or part of it): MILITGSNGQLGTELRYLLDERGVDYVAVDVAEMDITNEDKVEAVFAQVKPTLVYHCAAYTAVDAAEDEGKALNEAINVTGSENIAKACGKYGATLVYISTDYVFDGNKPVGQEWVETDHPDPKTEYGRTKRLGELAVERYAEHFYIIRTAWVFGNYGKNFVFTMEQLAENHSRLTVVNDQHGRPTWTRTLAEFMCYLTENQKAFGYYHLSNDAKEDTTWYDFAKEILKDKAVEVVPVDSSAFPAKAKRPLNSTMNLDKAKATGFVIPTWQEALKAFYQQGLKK

[2] = target: the molecule itself; test: SEC; size-exclusion chromatography of purified wild-type SeRmlD and triple mutant, retention compared with GacA

Molecule | Kd [1] [µM] | stoichiometry N [2]
NC(=O)C1=CN([C@@H]2O[C@H](COP(=O)(O)OP(=O)(O)OC[C@H]3O[C@@H](n4cnc5c(N)ncnc54)[C@H](O)[C@@H]3O)[C@@H](O)[C@H]2O)C=CC1 [NADH] | 110 | –
NC(=O)C1=CN([C@@H]2O[C@H](COP(=O)(O)OP(=O)(O)OC[C@H]3O[C@@H](n4cnc5c(N)ncnc54)[C@H](OP(=O)(O)O)[C@@H]3O)[C@@H](O)[C@H]2O)C=CC1 [NADPH] | 390 | –
B1 | – | 2
